The text below walks through data of patent publication US9695155B2, “Herbicidal substituted pyrimidinyloxy benzene compounds” (E. I. DU PONT DE NEMOURS AND COMPANY, priority 2013, dated 2017).

For one assay, the system named is sedge, umbrella. The assay can be described thus: Test B flooded paddy test. It is filed as in vivo, Cyperus difformis. As to conditions: Flood, 250 g ai/ha; 0 to 100 scale where 0 is no effect and 100 is complete control. In a few lines:
(§1)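 Compound added straight to paddy water, with pots kept flooded 3 cm above soil, on plants grown to the 2-leaf stage. Visual scoring 0-100 (100 = complete control) against untreated controls after 13 to 15 greenhouse days.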

The subject of assay [1] is pigweed. Briefly: Test A preemergence. The settings on record: for Plant response rating, Pigweed / Pigweed plant response rating (0 to 100 scale): 125 g ai/ha; for Plant response rating, Pigweed / Pigweed plant response rating: 0 to 100 scale where 0 is no effect and 100 is complete control; for Pigweed plant response rating: 500 g ai/ha. It is filed as in vivo, Amaranthus retroflexus. In a few lines:
(§2)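 Greenhouse pot test, loam/sand soil. Formulation: non-phytotoxic solvent mix plus surfactant. Pre: directed spray onto soil after sowing. Post: plants at 1–2 leaf, 2–10 cm. Rated visually vs untreated controls at ~10 d, 0 (no effect) to 100 (complete control).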

Assay [2] concerns pigweed. The assay can be described thus: Test A postemergence. The assay is classed as in vivo, Amaranthus retroflexus. Summed up: as §2
For assay [3], the system named is giant foxtail. Briefly: Test C postemergence. The assay is classed as in vivo, Setaria faberii. As to conditions: for Plant response rating, Foxtail, Giant: scale 0 to 100 (0 no effect, 100 complete control). An excerpt:
(§3) Seeds of plant species selected from blackgrass (Alopecurus myosuroides), Italian ryegrass (Lolium multiflorum), wheat, winter (winter wheat, Triticum aestivum), galium (catchweed bedstraw, Galium aparine), corn (Zea mays), large (Lg) crabgrass (Digitaria sanguinalis), giant foxtail (Setaria faberii), johnsongrass (Sorghum halepense), lambsquarters (Chenopodium album), morningglory (Ipomoea coccinea), yellow nutsedge (Cyperus esculentus), pigweed (Amaranthus retroflexus), ragweed (common ragweed, Ambrosia elatior), soybean (Glycine max), barnyardgrass (Echinochloa crus-galli), oilseed rape (Brassica napus), waterhemp (common waterhemp, Amaranthus rudis), kochia (Kochia scoparia), wild oat (Avena fatua), surinam grass (Brachiaria decumbens), foxtail, green (green foxtail, Setaria viridis), goosegrass (Eleusine indica), bromegrass, downy (downy bromegrass, Bromus tectorum), nightshade (eastern black nightshade, Solanum ptycanthum), cocklebur (common cocklebur, Xanthium strumarium), cupgrass, woolly (woolly cupgrass, Eriochloa villosa), bermudagrass (Cynodon dactylon), sunflower, (common oilseed sunflower, Helianthus annuus), Russian thistle (Salsola kali), and velvetleaf (Abutilon theophrasti) were planted into a blend of loam soil and sand and treated preemergence with test chemicals formulated in a non-phytotoxic solvent mixture which included a surfactant.
(§4) At the same time, plants selected from these crop and weed species and also barley, winter (winter barley, Hordeum vulgare), windgrass (Apera spica-venti), chickweed (common chickweed, Stellaria media), deadnettle (henbit deadnettle, Lamium amplexicaule), and canarygrass (littleseed canarygrass, Phalaris minor) were planted in pots containing Redi-Earth® planting medium (Scotts Company, 14111 Scottslawn Road, Marysville, Ohio 43041) comprising spaghnum peat moss, vermiculite, wetting agent and starter nutrients and treated with postemergence applications of test chemicals formulated in the same manner. Plants ranged in height from 2 to 18 cm (1- to 4-leaf stage) for postemergence treatments. Treated plants and controls were maintained in a greenhouse for 13 to 15 days, after which time all species were compared to controls and visually evaluated. Plant response ratings, summarized in Table C, are based on a scale of 0 to 100 where 0 is no effect and 100 is complete control. A dash (-) response means no test result.

A further assay has as its system johnsongrass. Briefly: Test C postemergence. The assay is classed as in vivo, Sorghum halepense. The settings on record: for Plant response rating, Johnsongrass: scale 0 to 100 (0 no effect, 100 complete control).
Text: as §3, §4

In the next assay the test system is Italian ryegrass. The assay can be described thus: Test C postemergence. It is filed as in vivo, Lolium multiflorum. The settings on record: for Plant response rating, Ryegrass, Italian: scale 0 to 100 (0 no effect, 100 complete control).
Text: as §3, §4

Assay [4] concerns barnyardgrass. The assay can be described thus: Test B flooded paddy test. It is filed as in vivo, Echinochloa crus-galli. As to conditions: Flood, 250 g ai/ha; 0 to 100 scale where 0 is no effect and 100 is complete control. Summed up: as §1
In the next assay the test system is chickweed. Briefly: Test C postemergence. The assay is classed as in vivo, Stellaria media. The settings on record: for Plant response rating, Chickweed: scale 0 to 100 (0 no effect, 100 complete control).
Text: as §3, §4

Assay [5] relates to giant foxtail. The assay can be described thus: Test A preemergence. The assay is classed as in vivo, Setaria faberii. The settings on record: for Plant response rating, Foxtail, Giant / Foxtail, Giant plant response rating: 0 to 100 scale where 0 is no effect and 100 is complete control; for Foxtail, Giant plant response rating: 500 g ai/ha. In a few lines:
as §2

Assay [6] relates to barnyardgrass. The assay can be described thus: Test A preemergence. It is filed as in vivo, Echinochloa crus-galli. The settings on record: for Plant response rating, Barnyardgrass / Barnyardgrass plant response rating: 0 to 100 scale where 0 is no effect and 100 is complete control; for Barnyardgrass plant response rating: 500 g ai/ha. Summed up: as §2
The test system of the next assay is blackgrass. Briefly: Test C postemergence. The settings on record: for Plant response rating, Blackgrass: scale 0 to 100 (0 no effect, 100 complete control). It is filed as in vivo, Alopecurus myosuroides.
Text: as §3, §4

A further assay deals with corn. Briefly: Test C postemergence. The assay is classed as in vivo, Zea mays. As to conditions: for Plant response rating, Corn: scale 0 to 100 (0 no effect, 100 complete control).
Text: as §3, §4

The subject of another assay is large (Lg) crabgrass. The assay can be described thus: Test C postemergence. It is filed as in vivo, Digitaria sanguinalis. The settings on record: for Plant response rating, Crabgrass, Large: scale 0 to 100 (0 no effect, 100 complete control).
Text: as §3, §4

Assay [7] relates to morningglory. Briefly: Test A preemergence. The settings on record: for Morningglory plant response rating (0 to 100 scale): 125 g ai/ha; for Morningglory plant response rating: 500 g ai/ha, 0 to 100 scale where 0 is no effect and 100 is complete control. The assay is classed as in vivo, Ipomoea spp. In a few lines: as §2
Assay [8] relates to morningglory. The assay can be described thus: Test A postemergence. The assay is classed as in vivo, Ipomoea spp. Summed up: as §2
[9] abbreviates: 500 g ai/ha, 0 to 100 scale where 0 is no effect and 100 is complete control.
[10] abbreviates: 16 g ai/ha, postemergence, 0 is no effect, 100 is complete control.
Where [11] appears, read: 125 g ai/ha, postemergence, visual rating.
Setting [12] is: 125 g ai/ha, 0 to 100 scale where 0 is no effect and 100 is complete control.
The mark [13] stands for this setting: 125 g ai/ha, 0 to 100 scale, 0 no effect, 100 complete control.

Structures are written as SMILES.

Take `Clc1cnc(Oc2cccc(Br)c2-n2cc(I)nn2)nc1` [Compound 117]: the “Plant response rating, Sedge, Umbrella” value in the assay with sedge, umbrella was found to be 20. Also, the “Plant response rating, Pigweed” value in the assay with pigweed [1] and in the assay with pigweed [2] (setting [9]) was 100 in each case. The “Pigweed plant response rating” value in the assay on pigweed [1] was 100. Moreover, the “Plant response rating (0 to 100), Foxtail, Giant” value in the assay on giant foxtail [3] (setting [10]) amounted to 20. For the same compound, the “Plant response rating, Foxtail, Giant” value in the assay with giant foxtail [3] (setting [11]) is 55; in the assay with giant foxtail [3] (Postemergence, 62 g ai/ha), 40; in the assay on giant foxtail [5] (125 g ai/ha), 90. Further, the “Plant response rating (0 to 100), Johnsongrass” value with johnsongrass (setting [10]) turned out to be 0. In addition, the “Plant response rating, Johnsongrass” value in the assay on johnsongrass (setting [11]) stood at 5; in the assay with johnsongrass (Postemergence, 62 g ai/ha) it was 5. Further, the “Plant response rating (0 to 100), Ryegrass, Italian” value in the assay on Italian ryegrass (setting [10]) stood at 0. Moreover, the “Plant response rating, Ryegrass, Italian” value in the assay on Italian ryegrass (setting [11]) is recorded as 5; in the assay with Italian ryegrass (Postemergence, 62 g ai/ha), 0. Besides, the “Plant response rating, Barnyardgrass” value stood at 0 in the assay with barnyardgrass [4] and 30 with barnyardgrass [6] (125 g ai/ha). The “Plant response rating (0 to 100), Chickweed” value in the assay with chickweed (setting [10]) is 50. Besides, the “Plant response rating, Chickweed” value is listed as 80 in the assay with chickweed (setting [11]) and 70 with chickweed (Postemergence, 62 g ai/ha). Moreover, in the assay with giant foxtail [5], the “Foxtail, Giant plant response rating” value is reported as 100. The “Barnyardgrass plant response rating” value in the assay on barnyardgrass [6] stood at 90. Also, in the assay with blackgrass (setting [10]), the “Plant response rating (0 to 100), Blackgrass” value turned out to be 5. Also, the “Plant response rating, Blackgrass” value in the assay with blackgrass (setting [11]) is 10; with blackgrass (Postemergence, 31 g ai/ha, 13 to 15 days) it was 10; with blackgrass (Postemergence, 62 g ai/ha), 5. The “Plant response rating (0 to 100), Corn” value with corn (setting [10]) amounted to 5. Further, the “Plant response rating, Corn” value is reported as 5 in the assay with corn (setting [11]) and 5 with corn (Postemergence, 62 g ai/ha). Further, in the assay on large (Lg) crabgrass (setting [10]), the “Plant response rating (0 to 100), Crabgrass, Large” value is 10. The “Plant response rating, Crabgrass, Large” value in the assay on large (Lg) crabgrass (setting [11]) is reported as 20; in the assay on large (Lg) crabgrass (Postemergence, 62 g ai/ha) it was 20.
With `N#Cc1cnn(-c2c(C#N)cccc2Oc2ncc(Br)cn2)c1` [Compound 135], the “Plant response rating, Sedge, Umbrella” value in the assay on sedge, umbrella stood at 75. The “Plant response rating, Pigweed” value in the assay with pigweed [1] and in the assay on pigweed [2] (setting [9]) was 100 in each case. The “Pigweed plant response rating” value with pigweed [1] is on record as 100; in the assay with pigweed [2] (setting [12]), 70. For the same compound, the “Plant response rating, Barnyardgrass” value in the assay on barnyardgrass [4] came out at 30; in the assay with barnyardgrass [6] (125 g ai/ha), 40. Besides, the “Plant response rating, Foxtail, Giant” value in the assay with giant foxtail [5] (125 g ai/ha) was determined as 70. The “Foxtail, Giant plant response rating” value in the assay with giant foxtail [5] worked out at 100. Moreover, in the assay on barnyardgrass [6], the “Barnyardgrass plant response rating” value came out at 90.
`FC(F)c1cccc(Oc2ncc(Cl)cn2)c1-n1cc(C(F)(F)F)cn1` [Compound 170]: in the assay on sedge, umbrella, the “Plant response rating, Sedge, Umbrella” value turned out to be 90. In addition, in the assay with pigweed [1], the “Pigweed plant response rating (0 to 100 scale)” value is 100. Further, the “Pigweed plant response rating” value in the assay on pigweed [1] and in the assay with pigweed [2] (setting [12]) was 100 throughout. Also, in the assay with pigweed [2] (setting [9]), the “Plant response rating, Pigweed” value worked out at 100. Further, the “Morningglory plant response rating (0 to 100 scale)” value with morningglory [7] amounted to 20. Besides, the “Morningglory plant response rating” value in the assay on morningglory [7] is listed as 90; with morningglory [8] (setting [12]), 60. The “Plant response rating, Barnyardgrass” value in the assay on barnyardgrass [4] was 70; in the assay on barnyardgrass [6] (125 g ai/ha), 90. In addition, the “Plant response rating, Foxtail, Giant” value with giant foxtail [5] (125 g ai/ha) is 100. Besides, the “Foxtail, Giant plant response rating” value in the assay on giant foxtail [5] amounted to 90. The “Plant response rating, Morningglory” value with morningglory [8] (setting [9]) is 90. In addition, the “Barnyardgrass plant response rating” value in the assay on barnyardgrass [6] was 100.
As to `NC(=S)c1cccc(Oc2ncc(Cl)cn2)c1-n1cc(Cl)cn1` [Compound 292], the “Plant response rating, Sedge, Umbrella” value with sedge, umbrella is listed as 75. In the assay on pigweed [1], the “Pigweed plant response rating (0 to 100 scale)” value came to 100 and the “Pigweed plant response rating” value was determined as 100. Besides, the “Plant response rating, Pigweed” value in the assay on pigweed [2] (setting [13]) is 100. In addition, the “Plant response rating, Pigweed” value with pigweed [2] (setting [9]) is listed as 100. Also, in the assay with morningglory [7], the “Morningglory plant response rating (0 to 100 scale)” value was 30 and the “Morningglory plant response rating” value was determined as 90. For the same compound, in the assay with barnyardgrass [4], the “Plant response rating, Barnyardgrass” value amounted to 20. For the same compound, the “Foxtail, Giant plant response rating (0 to 100 scale)” value in the assay on giant foxtail [5] (125 g ai/ha) was determined as 100. In the assay with giant foxtail [5], the “Foxtail, Giant plant response rating” value stood at 100. Moreover, the “Plant response rating, Morningglory” value with morningglory [8] (setting [13]) worked out at 90. For the same compound, the “Plant response rating, Morningglory” value in the assay on morningglory [8] (setting [9]) is reported as 100. In addition, the “Barnyardgrass plant response rating (0 to 100 scale, 0 is no effect, 100 is complete control)” value with barnyardgrass [6] (125 g ai/ha) worked out at 80. In addition, in the assay on barnyardgrass [6], the “Barnyardgrass plant response rating” value worked out at 100.
